Source: patent US7202287B2, “Method and compositions” (Arch Chemicals, Inc., priority 2000, dated 2007)

Columns and labels:
[1] = test system: Pseudomonas aeruginosa NCIB 10421; assay: Minimum inhibitory concentration against mono-cultures, microtitre plate doubling dilutions in nutrient broth; assay type: cell-based; details: 24 hours at 37° C., visual inspection
Procedure: Pseudomonas aeruginosa NCIB 10421 Bacteria were grown to stationary phase (18 h) in nutrient broth (approximately 10^9 organisms per ml). A 0.1% (v/v) inoculum was used to seed fresh medium and 100 μl of the inoculum was then added to each well of a microtitre plate, except for the first well which contained 200 μl. Using doubling dilutions, the concentration of the compounds under investigation were varied in each well along the ordinate axis. The presence or absence of growth was recorded by visual inspection after 24 hours incubation at 37° C. […]

[2] = test system: Aspergillus Niger IMI 17454; assay: Minimum inhibitory concentration against monocultures (fungus); assay type: cell-based; details: Example 3, Table 5; biocide alone
Procedure: Aspergillus Niger IMI 17454 The fungus was maintained on malt agar. The MICs were calculated as described previously in examples 1 and 2.

Row | SMILES | MIC (ppm) against Ps. aeruginosa ([1]; Example 1, Table 1, biocide alone) [ppm] | MIC (ppm) against Ps. aeruginosa ([1]; Example 2, Table 3, biocide alone) [ppm] | MIC (ppm) against Aspergillus Niger [2] [ppm]
1 | O=c1[nH]sc2ccccc12 [BIT, 1,2-benzisothiazolin-3-one] | 32 | – | –
2 | CCCCn1sc2ccccc2c1=O [Butyl BIT, 2n-butyl-1,2-benzisothiazolin-3-one] | – | 125 | 8
